Values joined by “and” are separate entries in the source; they are usually repeats but may differ in a detail not shown here. Equal values may be shown once. Active and inactive are the calls of the source.
How the values were obtained:
[1] = target: T1, Histone-lysine N-methyltransferase NSD2 (Homo sapiens, UniProt O96028); type: biochemical
T1 sequence (O96028 whole entry): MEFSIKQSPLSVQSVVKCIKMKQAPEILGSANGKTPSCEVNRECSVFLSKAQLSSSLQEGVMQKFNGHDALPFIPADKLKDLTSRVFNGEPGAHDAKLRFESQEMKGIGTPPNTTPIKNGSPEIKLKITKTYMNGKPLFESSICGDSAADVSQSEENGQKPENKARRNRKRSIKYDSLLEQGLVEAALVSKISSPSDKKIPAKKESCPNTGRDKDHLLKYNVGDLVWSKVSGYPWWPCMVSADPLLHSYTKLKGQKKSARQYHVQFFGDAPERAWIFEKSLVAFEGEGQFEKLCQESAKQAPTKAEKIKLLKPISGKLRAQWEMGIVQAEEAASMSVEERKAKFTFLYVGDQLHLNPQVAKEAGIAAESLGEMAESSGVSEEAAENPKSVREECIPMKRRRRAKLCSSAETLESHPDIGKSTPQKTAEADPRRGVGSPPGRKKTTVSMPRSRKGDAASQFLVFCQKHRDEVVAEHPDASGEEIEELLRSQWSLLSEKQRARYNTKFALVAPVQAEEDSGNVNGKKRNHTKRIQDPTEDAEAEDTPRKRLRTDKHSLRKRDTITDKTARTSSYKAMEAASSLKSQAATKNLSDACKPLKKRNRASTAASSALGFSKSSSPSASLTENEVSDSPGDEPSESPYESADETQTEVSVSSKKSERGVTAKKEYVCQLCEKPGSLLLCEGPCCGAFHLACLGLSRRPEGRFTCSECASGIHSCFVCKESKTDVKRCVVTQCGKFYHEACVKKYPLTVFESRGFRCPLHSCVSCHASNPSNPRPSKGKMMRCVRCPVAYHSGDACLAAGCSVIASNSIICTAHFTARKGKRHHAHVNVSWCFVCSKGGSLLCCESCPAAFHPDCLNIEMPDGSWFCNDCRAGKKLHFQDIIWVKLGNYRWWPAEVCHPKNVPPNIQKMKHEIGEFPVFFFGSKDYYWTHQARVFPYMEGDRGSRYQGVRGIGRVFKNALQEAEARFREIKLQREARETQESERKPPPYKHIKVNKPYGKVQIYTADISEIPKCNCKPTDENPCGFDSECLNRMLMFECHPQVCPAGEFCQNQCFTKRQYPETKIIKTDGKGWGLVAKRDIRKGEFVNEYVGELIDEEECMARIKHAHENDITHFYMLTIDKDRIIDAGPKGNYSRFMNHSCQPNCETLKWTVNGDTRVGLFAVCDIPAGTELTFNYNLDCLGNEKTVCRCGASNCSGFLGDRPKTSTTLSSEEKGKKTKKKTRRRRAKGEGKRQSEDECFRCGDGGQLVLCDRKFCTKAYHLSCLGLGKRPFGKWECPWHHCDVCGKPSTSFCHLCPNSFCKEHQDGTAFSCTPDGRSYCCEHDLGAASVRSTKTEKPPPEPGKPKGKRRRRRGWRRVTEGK

[2] = target: Tyrosyl-DNA phosphodiesterase 2 (Homo sapiens, UniProt O95551); assay: human TDP2 enzyme inhibitors, dose response, biochemical, epi absorbance, IC50 (AID 743297)
[3] = target: RNA-editing ligase 1, mitochondrial (Trypanosoma brucei brucei, UniProt P86926); assay: TbREL1 ligase inhibitors, dose response, biochemical, fluorescence, Trypanosoma brucei (AID 1117295); type: functional
[4] = NIH-3T3 fibroblast cytotoxicity, dose response, cytotoxicity control, cell-based, fluorescence, Alamar Blue, secondary assay (AID 2327); type: functional;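 further: NIH-3T3 mouse fibroblasts cultured with fluconazole at 8 µg/mL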
[5] = target: T2, RNA-binding protein pos-1 (Caenorhabditis elegans, UniProt G5EF15); assay: inhibitors of POS-1/mex-3 RNA binding, dose response, biochemical, fluorescence polarization (AID 1964);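 further: purified POS-1 fused to maltose binding protein made in E. coli; potency of compounds blocking POS-1 binding to fluorescent RNA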
T2 sequence (G5EF15 whole entry): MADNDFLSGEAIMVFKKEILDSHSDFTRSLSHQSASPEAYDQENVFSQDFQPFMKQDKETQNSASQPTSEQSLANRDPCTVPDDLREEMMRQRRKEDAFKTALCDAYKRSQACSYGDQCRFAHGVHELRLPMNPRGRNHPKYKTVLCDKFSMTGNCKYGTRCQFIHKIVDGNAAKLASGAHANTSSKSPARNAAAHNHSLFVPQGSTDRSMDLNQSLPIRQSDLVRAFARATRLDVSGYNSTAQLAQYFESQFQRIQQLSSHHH

[6] = test system: Streptococcus sp. 'group A'; assay: growth inhibition of control SK(-) GAS strain, dose response, counter-screen for streptokinase expression inhibitor project, luminescence, kanamycin, BacTiterGlo, confirmation (AID 1900); type: functional, organism-based
Streptokinase A = target: T3, Streptokinase A (Streptococcus pyogenes serotype M1, UniProt P10520); assay: S. pyogenes streptokinase expression inhibitors, potency, dose response, plasminogen activation absorbance, OD405 (AID 1914); type: functional, Streptococcus pyogenes M1 GAS;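 further: secreted streptokinase activity via plasminogen activation per viability signal from cell pellet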
T3 sequence (P10520 whole entry): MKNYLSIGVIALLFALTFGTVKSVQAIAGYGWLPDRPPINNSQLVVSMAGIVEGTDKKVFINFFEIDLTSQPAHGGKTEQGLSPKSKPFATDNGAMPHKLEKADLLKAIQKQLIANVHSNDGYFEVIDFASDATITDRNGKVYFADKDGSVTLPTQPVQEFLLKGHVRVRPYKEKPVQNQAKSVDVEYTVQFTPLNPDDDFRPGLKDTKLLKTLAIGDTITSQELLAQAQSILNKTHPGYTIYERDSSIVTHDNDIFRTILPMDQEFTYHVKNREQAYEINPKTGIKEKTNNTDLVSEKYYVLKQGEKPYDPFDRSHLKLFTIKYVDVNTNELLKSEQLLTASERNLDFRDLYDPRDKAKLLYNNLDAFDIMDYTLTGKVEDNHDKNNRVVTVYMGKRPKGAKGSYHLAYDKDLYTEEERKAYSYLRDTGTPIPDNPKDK

[7] = C. albicans growth with fluconazole, confirmation, fluorescence, retest (AID 2467); type: functional, cell-based
Streptococcus = assay: Group A Streptococcus viability loss, dose response, counter-screen for streptokinase expression inhibitor project, luminescence, BacTiterGlo (AID 1915); type: functional, organism-based;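 further: potency for reduction of bacterial viability or growth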
[8] = target: Heat shock protein HSP 90-alpha (Homo sapiens, UniProt P07900); type: functional, organism-based
[9] = growth suppression of PTEN-null colon cells, dose response, cell-based, HCT116 PTEN knockout (AID 1047); type: functional;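 further: HCT116 colon tumor cells with PTEN knocked out; cells exposed to compound for 60 hours before readout; potency for loss of cell viability measured by luminescence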
Beta Lactamase = Beta Lactamase (Pseudomonas aeruginosa, UniProt Q932Y6); assay: beta-lactamase reporter inhibitor potency, dose response, artefact control for TLR9-MyD88 binding inhibitor project, BLA reporter cells, FRET fluorescence (AID 588341); type: cell-based;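 further: cell based assay in CHO-K1 cells stably expressing beta-lactamase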
Sequence of Beta Lactamase (Q932Y6 whole entry): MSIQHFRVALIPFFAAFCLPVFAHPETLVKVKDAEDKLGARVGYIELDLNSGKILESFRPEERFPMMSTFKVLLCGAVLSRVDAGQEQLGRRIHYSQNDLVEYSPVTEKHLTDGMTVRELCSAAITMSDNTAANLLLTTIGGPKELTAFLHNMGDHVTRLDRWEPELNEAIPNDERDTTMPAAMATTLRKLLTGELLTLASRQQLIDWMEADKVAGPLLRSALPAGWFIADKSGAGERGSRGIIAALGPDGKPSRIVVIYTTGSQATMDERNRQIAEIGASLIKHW

Sequence of Tyrosyl-DNA phosphodiesterase 2 (O95551 whole entry): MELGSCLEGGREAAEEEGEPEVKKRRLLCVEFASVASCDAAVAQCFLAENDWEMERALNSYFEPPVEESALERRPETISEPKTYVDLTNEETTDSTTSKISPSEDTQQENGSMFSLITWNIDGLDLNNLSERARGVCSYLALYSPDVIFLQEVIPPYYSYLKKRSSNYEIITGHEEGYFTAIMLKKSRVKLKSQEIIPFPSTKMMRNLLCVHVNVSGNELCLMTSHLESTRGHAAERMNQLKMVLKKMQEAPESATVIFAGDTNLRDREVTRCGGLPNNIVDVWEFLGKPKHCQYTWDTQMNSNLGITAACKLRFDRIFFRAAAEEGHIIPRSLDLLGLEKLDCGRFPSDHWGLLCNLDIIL
Sequence of RNA-editing ligase 1, mitochondrial (P86926 whole entry): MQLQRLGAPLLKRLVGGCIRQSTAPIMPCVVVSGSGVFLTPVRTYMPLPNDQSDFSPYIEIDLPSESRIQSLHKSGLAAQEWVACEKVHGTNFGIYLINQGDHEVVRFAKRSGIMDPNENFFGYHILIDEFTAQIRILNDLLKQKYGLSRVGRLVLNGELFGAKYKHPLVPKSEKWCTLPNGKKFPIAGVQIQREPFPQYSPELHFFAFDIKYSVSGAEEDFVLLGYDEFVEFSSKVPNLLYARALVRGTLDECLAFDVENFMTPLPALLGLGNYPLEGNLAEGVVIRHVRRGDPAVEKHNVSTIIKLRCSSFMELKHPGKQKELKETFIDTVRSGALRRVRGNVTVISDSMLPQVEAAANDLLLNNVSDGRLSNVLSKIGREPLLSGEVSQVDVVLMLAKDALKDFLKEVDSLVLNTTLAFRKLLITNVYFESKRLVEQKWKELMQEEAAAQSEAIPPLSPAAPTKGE

Compound	AC50 [1]	EC50 [4]	EC50 ([6]; Streptococcus sp. 'group A')	EC50 (Streptokinase A)	EC50 [7]	EC50 (Streptococcus; Streptococcus)	AC50 [8]	further results
Cc1ccc(C)c(S(=O)(=O)/N=C2\C=C(NS(=O)(=O)c3ccccc3)C(=O)c3ccccc32)c1	> 20 µM (inactive)							
O=C(NC1(O)C(=O)c2ccccc2C1=O)c1ccccc1	6.87 µM (active)							IC50 [2]: 3.27 µM (active); IC50 [3]: 13.7 µM (inactive)
CCCCCCCCCCCCCCCCn1cc[n+](C)c1		149 µM (active)	1.72 µM (active)	5.97 µM (active) and > 150 µM (not active)	1.74 µM (active)	8.54 µM (active)	3.48 µM (active)	EC50 [5]: > 300 µM (not active); EC50 [6]: 1.97 µM (active); EC50 (Streptococcus): 4.64 µM (active)
Cc1cc(C)nc(/N=c2/ssnc2Cl)c1								EC50 [9]: 52.3 µM (active)
O=C(Nc1ccccc1Cl)/C(Cl)=C(\Cl)[S+]([O-])c1ccccc1 (stereo unspecified)		3.5 µM (active)	1.53 µM (active)	331 nM (active)	> 38 µM (not active)	5.14 µM (active)	< 0.195 µM (active)	IC50 (Beta Lactamase): > 5.53 µM (active)

Source: ChEMBL document CHEMBL1201862, “PubChem BioAssay data set” (2004)
